In BindingDB's records for patent US20250188037 (Takeda Pharmaceutical, 2025):

Legend:
[1] = biological target: Somatostatin receptor type 1 (Homo sapiens, UniProt P30872); assay: SSTR1 I-125 Somatostatin Competition Binding Assay for Selectivity Versus SSTR1
Procedure: Then 10 μg of SSTR1 membranes in 50 μL assay buffer are added per well. The plate is incubated for 60 minutes at room temperature. […] The contents of the assay plate are transferred to filters with a TomTech harvester and washed 5 times with 20 mM HEPES, 100 mM NaCl. […] The scintillator sheets are melted to the filters using a heat block. The filters are then read in a MicroBeta scintillation counter. Binding Ki curves are generated using Activity Base for Screening Data Management and the results are reported as pIC50.

[2] = biological target: Somatostatin receptor type 4 (Homo sapiens, UniProt P31391); assay: SSTR4 I-125 Somatostatin Competition Binding Assay for Selectivity Versus SSTR4
Sequence of Somatostatin receptor type 4 (P31391 whole entry): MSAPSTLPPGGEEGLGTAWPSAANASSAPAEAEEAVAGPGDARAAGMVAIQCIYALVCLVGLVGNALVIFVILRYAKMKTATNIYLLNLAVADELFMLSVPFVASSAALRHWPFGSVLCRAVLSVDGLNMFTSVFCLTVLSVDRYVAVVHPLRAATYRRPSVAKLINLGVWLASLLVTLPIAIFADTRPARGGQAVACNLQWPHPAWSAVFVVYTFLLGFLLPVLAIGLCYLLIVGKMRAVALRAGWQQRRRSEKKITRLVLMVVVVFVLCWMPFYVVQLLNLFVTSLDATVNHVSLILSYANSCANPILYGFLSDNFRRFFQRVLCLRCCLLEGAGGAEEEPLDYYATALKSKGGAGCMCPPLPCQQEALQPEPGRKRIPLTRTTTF
Procedure: Then 1 μg of SSTR4 membranes in 50 μL assay buffer are added per well. The Plate is incubated for 60 minutes at room temperature. […] The contents of the assay plate are transferred to filters with a TomTech harvester and washed 5 times with 20 mM HEPES, 100 mM NaCl. […] The scintillator sheets are melted to filters using a heat block. The filters are then read in a MicroBeta scintillation counter. Binding Ki curves are generated using Activity Base for Screening Data Management and the results are reported as pIC50.

Sequence of Somatostatin receptor type 1 (P30872 whole entry): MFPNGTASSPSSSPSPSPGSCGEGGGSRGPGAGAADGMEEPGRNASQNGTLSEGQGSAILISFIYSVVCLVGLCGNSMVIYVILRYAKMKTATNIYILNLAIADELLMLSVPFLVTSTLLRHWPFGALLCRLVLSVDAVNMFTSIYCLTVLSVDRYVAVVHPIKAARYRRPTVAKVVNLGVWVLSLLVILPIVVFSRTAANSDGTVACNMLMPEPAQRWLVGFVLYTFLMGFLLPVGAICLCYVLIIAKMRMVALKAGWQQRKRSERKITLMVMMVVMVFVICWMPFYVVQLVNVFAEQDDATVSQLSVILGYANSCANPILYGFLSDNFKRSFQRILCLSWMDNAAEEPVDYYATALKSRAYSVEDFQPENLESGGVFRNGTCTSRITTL

## O=C(N[C@H]1CCNC[C@@H]1F)C1(Cc2cccc(F)c2)CC1 [US20250188037, Example 44]
[1]
  IC50: > 50.1 µM
[2]
  IC50: 87.1 nM
